In patent publication US20220265817A1, “THERAPEUTIC COMPOSITIONS AND METHODS FOR TREATING HEPATITIS B” (priority 2017, published 2022):
Values joined by “and” are separate entries in the source; they are usually repeats but may differ in a detail not shown here. Equal values may be shown once. Read-outs that look alike come from different tables or passages of the source.

Experiments:
Test in all cases: microbe, parasite or virus in culture
Type in all cases: cell-based
[1] = system: D type HBV in primary human hepatocytes; details: for EC50: determined in an earlier separate experiment
Summary of the method: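 Supernatants collected on day 8 were assayed for HBV DNA by qPCR after compound exposure beginning day 2, with media and compound replaced every second day, in hepatocytes infected on day 1 with D type HBV. Dose-response: 7 points, 3-fold steps, triplicate; pairwise combinations tested as 5×5 matrix, synergy by MacSynergy.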

[2] = system: D type HBV in primary human hepatocytes (HBsAg)
Summary of the method: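 HBsAg inhibition versus DMSO control was determined by ELISA of day 8 supernatants. Percoll-purified PHHs received D type HBV one day after seeding, with compounds from day 2 and media changes every other day. Singles at 7 concentrations (3-fold, triplicate); pairs in 5×5 matrices.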

[3] = system: D type HBV in primary human hepatocytes (HBeAg); details: Hepatitis B virus, Hepatocyte
Summary of the method: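 HBeAg in day-8 culture supernatants was quantified by ELISA, and inhibition was calculated relative to DMSO-treated wells. Compounds were dosed from day 2 at seven 3-fold dilutions in triplicate, with medium changes every other day. The cells were Percoll-purified liver-perfusion hepatocytes infected with D-type HBV on day 1.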

[4] = 3 replicates, Compound 24 0.00 nM, TDF nM: 10.00, 3.33, 1.11, 0.37, 0.12

O=C(Nc1ccc(F)c(F)c1)c1cc(S(=O)(=O)NC2CCCC2)ccc1F [Compound 22]
inhibition at 0.061728 µM ([1]; Hepatitis B virus, Hepatocyte, TAF 0.00 nM, COMPOUND 22 61.728 nM): 2.38%
inhibition at 0.18519 µM ([1]; Hepatitis B virus, Hepatocyte, TAF 0.00 nM, COMPOUND 22 185.19 nM, read-out: AVERAGE % INHIBITION): -3.33%
inhibition at 0.55556 µM ([1]; Hepatitis B virus, Hepatocyte, TAF 0.00 nM, COMPOUND 22 555.56 nM, read-out: AVERAGE % INHIBITION): 8.01%
inhibition at 1.6667 µM ([1]; Hepatitis B virus, Hepatocyte, TAF 0.00 nM, COMPOUND 22 1666.7 nM): 28%
inhibition at 5 µM ([1]; Hepatitis B virus, Hepatocyte, TAF 0.00 nM, COMPOUND 22 5000 nM, read-out: AVERAGE % INHIBITION): 54.7%
inhibition at 0.06173 µM ([1]; Hepatitis B virus, Hepatocyte, read-out: AVERAGE % […] DNA, COMPOUND 22 61.73 nM alone): -11.8%
inhibition at 0.18519 µM ([1]; Hepatitis B virus, Hepatocyte, read-out: AVERAGE % […] DNA, COMPOUND 22 185.19 nM alone, read-out: AVERAGE % INHIBITION HBV DNA): -9.12%
inhibition at 0.55556 µM ([1]; Hepatitis B virus, Hepatocyte, read-out: AVERAGE % […] DNA, COMPOUND 22 555.56 nM alone, read-out: AVERAGE % INHIBITION HBV DNA): -12.7%
inhibition at 1.66667 µM ([1]; Hepatitis B virus, Hepatocyte, read-out: AVERAGE % […] DNA, COMPOUND 22 1666.67 nM alone): 17.9%
inhibition at 5 µM ([1]; Hepatitis B virus, Hepatocyte, read-out: AVERAGE % […] DNA, COMPOUND 22 5000.00 nM alone, read-out: AVERAGE % INHIBITION HBV DNA): 63.1%
EC50 ([1]; Hepatitis B virus, Hepatocyte, HBV DNA, read-out: Inhibitor EC50): 1.02 µM
EC50 ([1]; Hepatitis B virus, Hepatocyte, PHH, read-out: Inhibitor B EC50 HBV DNA): 1.02 µM
inhibition at 0.06173 µM ([2]; Hepatitis B virus, Hepatocyte, read-out: AVERAGE % INHIBITION HBsAg, COMPOUND 22 61.73 nM alone): -9.16%
inhibition at 0.18519 µM ([2]; Hepatitis B virus, Hepatocyte, read-out: AVERAGE % INHIBITION HBsAg, COMPOUND 22 185.19 nM alone): -10.2%
inhibition at 0.55556 µM ([2]; Hepatitis B virus, Hepatocyte, read-out: AVERAGE % INHIBITION HBsAg, COMPOUND 22 555.56 nM alone): -3.82%
inhibition at 1.66667 µM ([2]; Hepatitis B virus, Hepatocyte, read-out: AVERAGE % INHIBITION HBsAg, COMPOUND 22 1666.67 nM alone): 20.6%
inhibition at 5 µM ([2]; Hepatitis B virus, Hepatocyte, read-out: AVERAGE % INHIBITION HBsAg, COMPOUND 22 5000.00 nM alone): 31%
inhibition at 61.73 µM ([2]; Hepatitis B virus, Hepatocyte, read-out: AVERAGE % INHIBITION, IFNα2a 0.00 IU/mL, COMPOUND 22 61.73 μM): -13.8%
inhibition at 185.19 µM ([2]; Hepatitis B virus, Hepatocyte, read-out: AVERAGE % INHIBITION, IFNα2a 0.00 IU/mL, COMPOUND 22 185.19 μM): -10.6%
inhibition at 555.56 µM ([2]; Hepatitis B virus, Hepatocyte, read-out: AVERAGE % INHIBITION, IFNα2a 0.00 IU/mL, COMPOUND 22 555.56 μM): -5.08%
inhibition at 1666.67 µM ([2]; Hepatitis B virus, Hepatocyte, read-out: AVERAGE % INHIBITION, IFNα2a 0.00 IU/mL, COMPOUND 22 1666.67 μM): 10.3%
inhibition at 5000 µM ([2]; Hepatitis B virus, Hepatocyte, read-out: AVERAGE % INHIBITION, IFNα2a 0.00 IU/mL, COMPOUND 22 5000.00 μM): 23.1%
inhibition at 0.061728 µM ([2]; Hepatitis B virus, Hepatocyte, read-out: AVERAGE % INHIBITION, TAF 0 nM, COMPOUND 22 61.728 nM): -0.32%
inhibition at 0.18519 µM ([2]; Hepatitis B virus, Hepatocyte, read-out: AVERAGE % INHIBITION, TAF 0 nM, COMPOUND 22 185.19 nM): 2.37%
inhibition at 0.55556 µM ([2]; Hepatitis B virus, Hepatocyte, read-out: AVERAGE % INHIBITION, TAF 0 nM, COMPOUND 22 555.56 nM): -2.17%
inhibition at 1.6667 µM ([2]; Hepatitis B virus, Hepatocyte, read-out: AVERAGE % INHIBITION, TAF 0 nM, COMPOUND 22 1666.7 nM): 17.7%
inhibition at 5 µM ([2]; Hepatitis B virus, Hepatocyte, read-out: AVERAGE % INHIBITION, TAF 0 nM, COMPOUND 22 5000 nM): 20.7%
EC50 ([2]; Hepatitis B virus, Hepatocyte, read-out: Inhibitor B EC50 HBsAg): 12.8 µM
EC50 ([2]; Hepatitis B virus, Hepatocyte, read-out: Inhibitor EC50): 12.8 µM
inhibition at 0.06173 µM ([3]; read-out: AVERAGE % INHIBITION HBeAg, COMPOUND 22 61.73 nM alone): -16.8%
inhibition at 0.18519 µM ([3]; read-out: AVERAGE % INHIBITION HBeAg, COMPOUND 22 185.19 nM alone): -14.6%
inhibition at 0.55556 µM ([3]; read-out: AVERAGE % INHIBITION HBeAg, COMPOUND 22 555.56 nM alone): -7.23%
inhibition at 1.66667 µM ([3]; read-out: AVERAGE % INHIBITION HBeAg, COMPOUND 22 1666.67 nM alone): 8.5%
inhibition at 5 µM ([3]; read-out: AVERAGE % INHIBITION HBeAg, COMPOUND 22 5000.00 nM alone): 21.7%
inhibition at 61.73 µM ([3]; read-out: AVERAGE % INHIBITION, IFNα2a 0.00 IU/mL, COMPOUND 22 61.73 μM): -7.2%
inhibition at 185.19 µM ([3]; read-out: AVERAGE % INHIBITION, IFNα2a 0.00 IU/mL, COMPOUND 22 185.19 μM): -9.57%
inhibition at 555.56 µM ([3]; read-out: AVERAGE % INHIBITION, IFNα2a 0.00 IU/mL, COMPOUND 22 555.56 μM): -8.17%
inhibition at 1666.67 µM ([3]; read-out: AVERAGE % INHIBITION, IFNα2a 0.00 IU/mL, COMPOUND 22 1666.67 μM): 5.92%
inhibition at 5000 µM ([3]; read-out: AVERAGE % INHIBITION, IFNα2a 0.00 IU/mL, COMPOUND 22 5000.00 μM): 20.9%
inhibition at 0.061728 µM ([3]; read-out: AVERAGE % INHIBITION, TAF 0.00 nM, COMPOUND 22 61.728 nM): -6.71%
inhibition at 0.18519 µM ([3]; read-out: AVERAGE % INHIBITION, TAF 0.00 nM, COMPOUND 22 185.19 nM): -12.4%
inhibition at 0.55556 µM ([3]; read-out: AVERAGE % INHIBITION, TAF 0.00 nM, COMPOUND 22 555.56 nM): -5.06%
inhibition at 1.6667 µM ([3]; read-out: AVERAGE % INHIBITION, TAF 0.00 nM, COMPOUND 22 1666.7 nM): 10.1%
inhibition at 5 µM ([3]; read-out: AVERAGE % INHIBITION, TAF 0.00 nM, COMPOUND 22 5000 nM): 29.7%
EC50 ([3]; read-out: Inhibitor B EC50 HBeAg): 10.7 µM
EC50 ([3]; read-out: Inhibitor EC50): 10.7 µM

CC(C)OC(=O)OCOP(=O)(CO[C@H](C)Cn1cnc2c(N)ncnc21)OCOC(=O)OC(C)C.O=C(O)/C=C/C(=O)O [TDF, tenofovir disoproxil fumarate, reference compound]
AVERAGE % INHIBITION HBV DNA [1, 4]: −6.24% and −1.16% and −15.4% and 3.15%
AVERAGE % INHIBITION (HBsAg) [2, 4]: −3.32% and −3.31% and −6.65% and −1.28% and −3.54%
inhibition at 0.00012 µM ([2]; Hepatitis B virus, Hepatocyte, TDF 0.12 nM alone, read-out: AVERAGE % INHIBITION HBsAg): 3.39%
inhibition at 0.00037 µM ([2]; Hepatitis B virus, Hepatocyte, TDF 0.37 nM alone, read-out: AVERAGE % INHIBITION HBsAg): -0.3%
inhibition at 0.00333 µM ([2]; Hepatitis B virus, Hepatocyte, read-out: AVERAGE % INHIBITION HBsAg, TDF 3.33 nM alone): -0.9%
inhibition at 0.01 µM ([2]; Hepatitis B virus, Hepatocyte, read-out: AVERAGE % INHIBITION HBsAg, TDF 10.00 nM alone): -5.9%
EC50 ([2]; Hepatitis B virus, Hepatocyte, read-out: Inhibitor A EC50): > 0.1 µM
ADDITIVE INHIBITION (HBsAg) ([2]; expected from additive interaction, Compound 24 0.00 nM, TDF nM by row: r27 10.00, r28 3.33, r29 1.11, r30 0.37, r31 0.12): −6.65% and −1.28% and −3.54% and −3.32% and −3.31%
inhibition at 0.00012 µM ([3]; read-out: AVERAGE % INHIBITION HBeAg, TDF 0.12 nM alone): 7.02%
inhibition at 0.00012 µM ([3]; read-out: AVERAGE % INHIBITION HBeAg, TDF 0.12 nM alone (compound 23 study)): 4.4%
inhibition at 0.00037 µM ([3]; read-out: AVERAGE % INHIBITION HBeAg, TDF 0.37 nM alone): 6.23%
inhibition at 0.00037 µM ([3]; read-out: AVERAGE % INHIBITION HBeAg, TDF 0.37 nM alone (compound 23 study)): 6.74%
inhibition at 0.00333 µM ([3]; read-out: AVERAGE % INHIBITION HBeAg, TDF 3.33 nM alone): 11.6%
inhibition at 0.00333 µM ([3]; read-out: AVERAGE % INHIBITION HBeAg, TDF 3.33 nM alone (compound 23 study)): 9.05%
inhibition at 0.01 µM ([3]; read-out: AVERAGE % INHIBITION HBeAg, TDF 10.00 nM alone): 6.07%
inhibition at 0.01 µM ([3]; read-out: AVERAGE % INHIBITION HBeAg, TDF 10.00 nM alone (compound 23 study)): 0.72%
EC50 ([3]; read-out: Inhibitor A EC50): > 0.1 µM
